Activity calls are given as the source filed them. How the calls were made is not given here.
Tested on: M. tuberculosis H37Rv growth inhibition with meropenem
Assay: dose response, H37Rv, with and without meropenem (AID 434987);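 further: growth over 7 days at 37 °C before Alamar Blue read on day 9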
[1] = M. tuberculosis H37Rv growth inhibition, measured here: IC50 without meropenem
[2] = M. tuberculosis H37Rv growth inhibition, measured here: IC90 without meropenem
[3] = measured here: IC90 with meropenem

Structure (SMILES)	IC50	IC50 [1] [µM]	IC90 [2] [µM]	IC90 [3] [µM]
CCOc1ccc(/C=N/NC(=O)c2ccccc2O)cc1CN1CC2CC(C1)c1cccc(=O)n1C2 (stereo not drawn)	79.8 µM (inactive)	94.9	> 100	> 100
O=C1O/C(=C/c2ccccc2)N=C1c1ccccc1	1.34 µM	16.9	> 100	28.3
O=C1OC(/C=C/c2ccccc2)=NC/1=C/c1ccco1	0.691 µM	3.11	13	13.9
Cc1ccc(C(=O)c2oc3ccccc3c2NC(=O)c2cc(-c3cc(C)ccc3O)n[nH]2)cc1	> 100 µM (inactive)	> 100	> 100	> 100
CC#CC[N+](C)(C)CCCCCCCCCCCC	49 µM (inactive)	72.8	> 100	> 100
C=CCNCCCOc1ccc(Cl)cc1C(C)(C)C	48.1 µM (inactive)	58.2	72.3	52.6
CC(C)OC(=O)CSc1nc(N2CCOCC2)c2c(c1C#N)CC(C)(C)OC2	> 100 µM (inactive)	> 100	> 100	> 100
COC(=O)c1cnn(-c2ccccc2)c1/C=N/NC(=S)Nc1ccc(Cl)cc1	33.1 µM	> 100	> 100	> 100
O=C(Nc1ccc2nc3n(c(=O)c2c1)CCCC3)c1cc([N+](=O)[O-])ccc1F	83.8 µM (inactive)	83.1	90	91
O=C(OCC(=O)N(Cc1ccccc1)C1CCS(=O)(=O)C1)c1cc2c(s1)CCCC2 (stereo not drawn)	90.7 µM (inactive)	94.2	> 100	> 100
Cc1cccc(C)c1OCC(=O)NNC(=O)CNC(=O)c1ccc(OC(F)F)cc1	88.3 µM (inactive)	> 100	> 100	98.1
O=C(C1=C[C@H](c2ccc(Br)cc2)C[C@H](OCc2ccc(CO)cc2)O1)N1CCN(Cc2ccc3c(c2)OCO3)CC1	50.4 µM (inactive)	> 100	> 100	> 100
CCC(CC)c1nnc(NC(=O)c2cc(-c3ccccc3)nc3ccccc23)s1	> 100 µM (inactive)	> 100	> 100	> 100
N=C1C(c2nc(-c3ccc(Cl)cc3)cs2)=C(O)CN1CCCN1CCOCC1	> 100 µM (inactive)	> 100	> 100	> 100
O=C(Nc1ccc(Cl)cc1Cl)C1=Cc2ccccc2OC1	> 100 µM (inactive)	> 100	> 100	> 100
COc1ccccc1C(=O)Nc1ccc2c3c(cccc13)CC2	8.08 µM	35.9	> 50	> 100
N/C(=N\c1nc2ccccc2o1)NC(=O)c1ccccc1Br	< 0.2 µM	28.4	> 100	> 100
Cc1cc(C(=O)Nc2nnc(-c3ccccc3)s2)no1	45.1 µM (inactive)	48.4	> 100	> 100
COc1cc(NC(=O)C2CCCCC2)c(OC)cc1NC(=O)CN1CCCCC1	9.28 µM	47.4	> 100	> 100
Cc1ccc(-n2ncc3c(=O)n(CC#N)cnc32)cc1C	20.9 µM	51.3	> 100	> 100
O=c1oc(-c2ccccc2)nc2sc3c(c12)CCC3	32.2 µM	> 100	> 100	> 100

Structure (SMILES)	IC50	IC50 [1] [µM]	IC90 [2] [µM]	IC90 [3] [µM]
O=C(CC(=O)c1ccccc1)Nc1ccc2c(c1)OCCO2	37.2 µM (inactive)	78.9	> 100	> 100
C=CCSc1nnc(-c2cc3c(-c4ccccc4)nn(C)c3s2)n1C	26 µM (inactive)	52.4	92	> 100
COc1cc(NC(=O)c2ccc(CNc3c(N4CCCC4)c(=O)c3=O)cc2)cc(OC)c1OC	23.9 µM	> 100	> 100	> 100
CN(/N=C/c1ccncc1)c1cnc2ccccc2n1	59.8 µM (inactive)	> 100	> 100	> 100
NC(N)=NS(=O)(=O)c1ccc(N)cc1	> 100 µM (inactive)	> 100	> 100	> 100
C/C(=N/NC(=O)c1ccc(Cl)s1)c1ccc(NC(=O)COc2ccc(Cl)cc2)cc1	> 100 µM (inactive)	> 100	> 100	> 100
NC(=S)N/N=C/c1ccc([N+](=O)[O-])cc1	31.7 µM	> 100	> 100	> 100
COc1ccc(C2(CNC(=O)c3cc([N+](=O)[O-])cc([N+](=O)[O-])c3)CCCC2)cc1OC	1.43 µM (inactive)	1.86	3	1.61
CCCC1=C/C(=C/c2ccc(-c3ccccc3OC)o2)C(=O)O1	29.3 µM (inactive)	55.5	> 100	> 100
CC(C)C[C@H](NC(=O)c1nc[nH]c1C(=O)N1CCN(C(=O)OC(C)(C)C)CC1)C(=O)OCc1ccccc1	48.8 µM (inactive)	49.4	56.1	54.9
N/C(=N\c1nc2ccccc2o1)NC(=O)c1ccccc1NC(=O)c1ccccc1	> 100 µM (inactive)	> 100	> 100	> 100
CCOC(=O)COc1ccc2nsnc2c1	23.5 µM (inactive)	27	> 100	26
C=C(C)C1Cc2c(C)nn(-c3cccc4ccccc34)c2C1 (stereo not drawn)	15.4 µM	39.2	58.5	47.4
O=C(Nc1ccccc1-c1ccccc1)C12CC3CC(CC(C3)C1)C2	> 100 µM (inactive)	> 100	> 100	> 100
CCOC(=O)/C(C#N)=C/c1ccc(OCC(=O)Nc2ccccc2)c(OC)c1	98.4 µM (inactive)	> 100	> 100	> 100
O=C(CN1C(=O)c2cccc([N+](=O)[O-])c2C1=O)N1CCN(c2ccc(F)cc2)CC1	58.6 µM (inactive)	91.4	> 100	74.5
Cc1cc(Br)cc2c(C(=O)NCC3CCCO3)cc(-c3ccccc3)nc12 (stereo not drawn)	95.6 µM (inactive)	> 100	> 100	> 100
c1ccc(-c2oc3ncnc(NCCN4CCOCC4)c3c2-c2ccccc2)cc1	> 100 µM (inactive)	> 100	> 100	> 100
Cc1ccc(C(=O)NCC2(c3ccccc3)CCCC2)cc1	75.3 µM (inactive)	> 100	> 100	> 100
COc1ccc(Cl)cc1NC(=O)C/C(C)=N/NC(=O)CC#N	7.99 µM	> 100	> 100	> 100
COc1cc(NC(=S)NC(=O)c2cccs2)ccc1NC(=O)C(C)C	> 100 µM (inactive)	> 100	> 100	> 100

Source: PubChem BioAssay AID434987 (Southern Research Specialized Biocontainment Screening …, 2010)
